Where two headings read alike, the source gives them in different places.
Key:
[1] = target: BRD4 BD1 (Homo sapiens (Human), UniProt O60885); assay: Bromodomain binding assay (T7 phage display, qPCR), BRD4 BD1
Experimental: (§1) T7 phage strains displaying bromodomains were grown in parallel in 24-well blocks in an E. coli host derived from the BL21 strain. E. coli were grown to log-phase and infected with T7 phage from a frozen stock (multiplicity of infection=0.4) and incubated with shaking at 32° C. until lysis (90-150 min). The lysates were centrifuged (5,000×g) and filtered (0.2 μm) to remove cell debris. Streptavidin-coated magnetic beads were treated with biotinylated small molecule or acetylated peptide ligands for 30 min at RT to generate affinity resins for bromodomain assays. The ligated beads were blocked with excess biotin and washed with blocking buffer (SeaBlock (Pierce), 1% BSA, 0.05% Tween 20, 1 mM DTT) to remove unbound ligand and to reduce non-specific phage binding. Binding reactions were assembled by combining bromodomains, ligated affinity beads, and test compounds in 1× binding buffer (16% SeaBlock, 0.32×PBS, 0.02% BSA, 0.04% Tween 20, 0.004% Sodium azide, 7.9 mM DTT). Test compounds were prepared as 1000× stocks in 100% DMSO and subsequently diluted 1:25 in MEG. The compounds were then diluted directly into the assays such that the final concentrations of DMSO and MEG were 0.1% and 2.4%, respectively. All reactions were performed in polypropylene 384-well plates in a final volume of 0.02 ml. The assay plates were incubated at RT with shaking for 1 hr and the affinity beads were washed with wash buffer (1×PBS, 0.05% Tween 20). The beads were then re-suspended in elution buffer (1×PBS, 0.05% Tween 20, 2 μM non-biotinylated affinity ligand) and incubated at RT with shaking for 30 min. The bromodomain concentration in the eluates was measured by quantitative polymerase chain reaction (qPCR).
(§2) An 11-point 3-fold serial dilution of each test compound was prepared in 100% DMSO at 1000× final test concentration. All compounds were distributed by acoustic transfer (non-contact dispensing) in 100% DMSO. The compounds were then diluted directly into the assays such that the final concentration of DMSO was 0.09%. Most dissociation constants were determined using a compound top concentration=10,000 nM. If the initial dissociation constant determined was <0.169 nM (the lowest concentration tested), the measurement was repeated with a serial dilution starting at a lower top concentration.
(§3) The same bromodomain assay procedure as that outlined above was used. Example compounds were screened at 30 times their Kd, and results for primary screen binding interactions are reported as ‘% Ctrl’, where lower numbers indicate stronger hits in the matrix.

[2] = test system: human liver hepatocytes; assay: Intrinsic clearance in human liver hepatocytes; format: in vitro ADME; details: human cryopreserved hepatocytes, 0.5 μM test compound
Experimental: Vials of human cryopreserved hepatocytes, supplied by Life Technologies, were thawed according to manufacturer's instructions and cells re-suspended in Williams Medium E (WME) containing cell maintenance supplement pack (CM4000, Life Technologies). Hepatocytes were incubated in suspension (0.5 million cells/mL) in 48 well non-collagen coated cell culture plates for 10 min at 37° C., 5% CO2. Upon addition of an equal volume of supplemented WME containing 1 μM test compound, an aliquot of incubation solution was removed to acetonitrile containing internal standard (final concentration 0.5 μM test compound and a cell density of 0.25 million cells/mL). Similarly, aliquots were removed at 3, 6, 9, 15, 30, 45, 60, 90 and 120 min. 100 μL of 80:20 water:acetonitrile was added to all samples and the analysis plate was centrifuged for 10 min at RT prior to injection and analysis of samples by UPLC-MS/MS. The response (area ratio of test compound to internal standard) was plotted against time using an exponential decay model from which rate of disappearance was calculated.

[3] = Solubility in topical formulations; format: physicochemical; details: thermodynamic from solid
Experimental: The solubilities of solid exemplary compounds were determined in a selection of solvents and solvent combinations (Transcutol, 50:50 Transcutol:water, Labrasol, propylene glycol and 1:5:4 ethanol:propylene glycol:water), after equilibration. An appropriate volume of each combination was added to a manual weighing of solid compound to provide a 20 mg/mL concentration. The resulting suspension was shaken at 1000 rpm for 5 hr at 32° C. before centrifugation at 13,000×g for 10 min to pellet any precipitate. The supernatant solution was removed and inserted into a HPLC vial and quantified by HPLC-UV against a calibration of a known concentration of the compound in DMSO.

[4] = Stability in human skin S9 fraction; format: in vitro ADME; details: 0.3 mg/mL S9, NADPH, UDPGA, 0.5 μM compound; for half-life at 0.5 μM: human, human skin S9 fraction, pH 7.4, read-out: T1/2 (min) in human skin S9 fractions
Experimental: An incubation mixture was prepared containing 50 mM potassium phosphate buffer, pH 7.4), 0.3 mg/mL human skin S9 (Sekisui Xenotech), NADPH (final conc 0.8 mg/mL), UDPGA (final conc 0.16 mg/mL) and warmed to 37° C. for 5 min. The reaction was initiated upon addition of test compound (final concentration 0.5 μM). Immediately, at time zero, then at 3, 6, 15, 30, 60, 120 and 180 min, an aliquot (50 μL) of the incubation mixture was removed and mixed with acetonitrile (100 μL) to terminate the reaction. Internal standard was added to all samples, the samples centrifuged to sediment precipitated protein and the plates then sealed prior to UPLC-MS/MS analysis using a Quattro Premier XE (Waters corporation, USA).
Grafit (Erithacus Ltd) was used to calculate the exponential decay and consequently the rate constant (k) from the ratio of peak area of test compound to internal standard at each timepoint. The half life (T1/2) of each test compound was determined using the following equation: T1/2=0.693/k

[5] = Hydrolytic stability at a range of pHs; format: physicochemical; details: 60° C., 6 days
Experimental: To test the hydrolytic stability a 1 mg/mL solution of test materials was made in DMSO (0.1% solution). To 300 μL of each solution in a HPLC vials was added 1200 μL of one of the following: pH 4.0 buffer—left at 60° C. for 5 days. Samples taken t=0 hr and 6 days pH 5.5 buffer—left at 60° C. for 5 days. Samples taken t=0 hr and 6 days pH 7.4 buffer—left at 60° C. for 5 days. Samples taken t=0 hr and 6 days A 100 μL aliquot was taken at each time point and added to 900 μL of DMSO. This sample was used to determine % decomposition.
% decomposition was measured with a Bruker MicrOTOF II focus ESI Mass Spectrometer connected in parallel to Dionex Ultimate 3000 RSLC system with diode array detector.

[6] = test system: CD4+ T-cells stimulated by CD2, CD3 and CD28 antibodies; assay: Cellular activity IL-4: reduction of IL-4 levels in activated CD4+ T-cells; format: cell-based, human; details: Homo sapiens, T-cell
Experimental: • 1. CD4^+ T-cells are isolated from cryopreserved human peripheral blood mononuclear cells (PBMCs) using EasySep™ Kit (Cat. No. 17952, Stemcell Technologies). • 2. CD2, CD3 and CD28 antibodies coated beads from T cell Activation/Expansion Kit (Cat. No. 130-091-441, Miltenyi Biotec) are added to the CD4^+ T-cells at a bead-to-cell ratio of 1:2. • 3. CD4^+ T-cells along with the beads are seeded at 2×10^5 cells/well in a round bottom 96-well plate and treated with different compounds and controls in a total volume of 200 μl. • 4. The cells are cultured for 48 hrs at 37° C., 5% CO2. • 5. Supernatant is collected and IL-4 is analysed by ELISA.

[7] = target: BRD4 BD2 (Homo sapiens (Human), UniProt O60885); assay: Bromodomain binding assay (T7 phage display, qPCR), BRD4 BD2
Experimental: as §1, §2, §3

[8] = target: BRD2(1) (Homo sapiens (Human), UniProt P25440); assay: Bromodomain binding assay, BRD2(1)
Chain of BRD2(1) (P25440 74-180): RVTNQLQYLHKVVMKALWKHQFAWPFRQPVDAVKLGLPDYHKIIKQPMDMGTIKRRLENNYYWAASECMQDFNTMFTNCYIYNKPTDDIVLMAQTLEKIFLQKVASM
Experimental: as §1
(§4) An 11-point 3-fold serial dilution of each test compound was prepared in 100% DMSO at 1000× final test concentration. […] Most dissociation constants were determined using a compound top concentration=10,000 nM. If the initial dissociation constant determined was <0.169 nM (the lowest concentration tested), the measurement was repeated with a serial dilution starting at a lower top concentration. […]

[9] = target: BRD3(1) (Homo sapiens (Human), UniProt Q15059); assay: Bromodomain binding assay, BRD3(1)
Chain of BRD3(1) (Q15059 34-140): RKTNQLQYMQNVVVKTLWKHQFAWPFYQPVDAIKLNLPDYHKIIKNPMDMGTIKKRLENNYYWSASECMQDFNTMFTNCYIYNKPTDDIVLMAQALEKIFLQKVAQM
Experimental: as §1, §4

[10] = target: BRDT(1) (Homo sapiens (Human), UniProt Q58F21); assay: Bromodomain binding assay, BRDT(1)
Experimental: as §1, §4

[11] = target: BRD2(2) (Homo sapiens (Human), UniProt P25440); assay: Bromodomain binding assay, BRD2(2)
Chain of BRD2(2) (P25440 344-453): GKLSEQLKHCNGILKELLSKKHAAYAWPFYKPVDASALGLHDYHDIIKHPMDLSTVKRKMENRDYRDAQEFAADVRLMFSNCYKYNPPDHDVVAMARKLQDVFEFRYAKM
Experimental: as §1, §4

[12] = target: BRD3(2) (Homo sapiens (Human), UniProt Q15059); assay: Bromodomain binding assay, BRD3(2)
Chain of BRD3(2) (Q15059 306-415): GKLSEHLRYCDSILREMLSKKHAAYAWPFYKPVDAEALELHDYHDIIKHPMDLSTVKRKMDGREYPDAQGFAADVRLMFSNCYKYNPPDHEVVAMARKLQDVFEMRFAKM
Experimental: as §1, §4

[13] = target: BRDT(2) (Homo sapiens (Human), UniProt Q58F21); assay: Bromodomain binding assay, BRDT(2)
Experimental: as §1, §4

[14] = test system: healthy human skin stimulated by a Th2 or Th17 biasing cocktail; assay: Th2 and Th17 stimulation of human skin explants, IL-4 / IL-17A mRNA; format: cell-based
Experimental: • 1. Freshly excised healthy human skin tissue from abdominoplasties is defatted, cleaned and sectioned into 7 mm biopsies. • 2. The biopsies are placed in Transwell® inserts with the epidermis apical and exposed to air and the dermis submerged in media in the basal chamber. • 3. The biopsies are pre-treated overnight at 37° C., 5% CO2 with different compounds and controls added to the media in the basal chamber. • 4. The next day, contents of the basal chamber is replaced with fresh media containing the test compound and a stimulation cocktail for either Th2 inflammation (proprietary Medpharm cocktail) or Th17 inflammation (mix of antibodies against CD3, CD28, IL-4, IFNγ and recombinant IL-1β, IL-6, IL-21, TGF-β). • 5. The biopsies are incubated at 37° C., 5% CO2 for a further 24 hrs. • 6. After harvesting, the biopsies are cut in half, and one half is homogenized and used for RNA extraction by standard methods. IL-4 or IL-17A is assessed by RT-qPCR.

[15] = Labrasol, oil or lipid, 5 hr at 32° C., read-out: Solubility in LB (Labrasol)
[16] = Transcutol, organic solvent or mixture, 5 hr at 32° C., read-out: Solubility in TC (Transcutol)
[17] = Transcutol:water 1:1, aqueous with cosolvent or surfactant or cyclodextrin, 5 hr at 32° C., read-out: Solubility in TC:water 1:1
[18] = propylene glycol, organic solvent or mixture, 5 hr at 32° C., read-out: Solubility in PG (Propylene glycol)
[19] = 48 hrs, ELISA, read-out: EC50 reduction of IL-4 levels
[20] = read-out: cellular EC50 values, reduction of IL-4 levels
[21] = single point, screened at 30 times Kd, lower numbers indicate stronger hits

## Cn1cc(-c2ccc(O)cc2Oc2ccccc2)c2cc[nH]c2c1=O [Example 2, 4-(4-hydroxy-2-phenoxyphenyl)-6-methyl-1,6-dihydro-7H-pyrrolo[2,3-c]pyridin-7-one]
[1]; read-out: BRD4 BD1 Kd
  Kd: 10 to 100 nM
[2]
  Intrinsic clearance, % Liver Blood Flow: 88 % Liver Blood Flow
[3]; [15]
  solubility at 5 hr: 1000 to 10000 µg/mL
[3]; [16]
  solubility at 5 hr: > 10000 µg/mL
[3]; [17]
  solubility at 5 hr: 1000 to 10000 µg/mL
[3]; [18]
  solubility at 5 hr: 1000 to 10000 µg/mL
[4]
  half-life at 0.5 μM: > 120 min
[5]; pH 4.0 buffer
  pH 4.0 % decomposition: 15%
[5]; pH 5.5 buffer
  pH 5.5 % decomposition: 30%
[5]; pH 7.4 buffer
  pH 7.4 % decomposition: 0%

## Cn1cc(-c2cc(O)ccc2Oc2ccccc2)c2cc[nH]c2c1=O [Example 6, 4-(5-hydroxy-2-phenoxyphenyl)-6-methyl-1,6-dihydro-7H-pyrrolo[2,3-c]pyridin-7-one]
[1]; read-out: BRD4 BD1 Kd
  Kd: ≤ 10 nM
[6]; [19]
  EC50: 10 to 100 nM
[6]; [20]
  EC50: < 100 nM
[2]
  Intrinsic clearance, % Liver Blood Flow: 94 % Liver Blood Flow
[3]; [15]
  solubility at 5 hr: > 10000 µg/mL
[3]; [16]
  solubility at 5 hr: > 10000 µg/mL
[3]; [17]
  solubility at 5 hr: 1000 to 10000 µg/mL
[3]; ethanol:propylene glycol:water 1:5:4, aqueous with cosolvent or surfactant or cyclodextrin, 5 hr at 32° C., read-out: Solubility in EtOH:PG:water 1:5:4
  solubility at 5 hr: 1000 to 10000 µg/mL
[3]; [18]
  solubility at 5 hr: > 10000 µg/mL
[3]; topical formulation solvents and solvent combinations, 32 °C, organic solvent or mixture, read-out: solubilities in the formulations described
  solubility at 5 hr: > 1000 µg/mL
[4]
  T1/2 (min) in human skin S9 fractions: >120 min
  half-life at 0.5 μM: > 120 min

## CCNC(=O)c1cc2c(-c3ccn(C)c(=O)c3Oc3c(C)cc(F)cc3C)cn(C)c(=O)c2[nH]1 [Example 41, N-ethyl-4-(3-(4-fluoro-2,6-dimethylphenoxy)-1-methyl-2-oxo-1,2-dihydropyridin-4-yl)-6-methyl-7-oxo-6,7-dihydro-1H-pyrrolo[2,3-c]pyridine-2-carboxamide]
[1]; dose response, read-out: BRD4(1) Kd
  Kd: > 3000 nM
[1]; read-out: BRD4 BD1 Kd
  Kd: > 1000 nM
[1]; [21]
  BRD4(1) % Ctrl: 90 % Ctrl
[7]; dose response, read-out: BRD4(2) Kd
  Kd: < 10 nM
[7]; read-out: BRD4 BD2 Kd
  Kd: ≤ 10 nM
[7]; [21]
  BRD4(2) % Ctrl: 8.7 % Ctrl
[8]; dose response
  Kd: > 3000 nM
[8]; [21]
  BRD2(1) % Ctrl: 100 % Ctrl
[9]; dose response
  Kd: > 3000 nM
[9]; [21]
  BRD3(1) % Ctrl: 85 % Ctrl
[10]; dose response
  Kd: > 3000 nM
[10]; [21]
  BRDT(1) % Ctrl: 100 % Ctrl
[11]; dose response
  Kd: < 10 nM
[11]; [21]
  BRD2(2) % Ctrl: 0.1 % Ctrl
[12]; dose response
  Kd: < 10 nM
[12]; [21]
  BRD3(2) % Ctrl: 2.3 % Ctrl
[13]; dose response
  Kd: < 10 nM
[13]; [21]
  BRDT(2) % Ctrl: 13 % Ctrl
[6]; [19]
  EC50: 10 to 100 nM
[6]; [20]
  EC50: < 100 nM
[14]; 2.5 μM, Th2 biasing cocktail
  % reduction in IL-4 mRNA (IL-4): ++ (> 50% reduction)
[14]; 2.5 μM, Th17 biasing cocktail
  % reduction in IL-17A mRNA (IL-17): +++ (> 75% reduction)
[14]; Th2 or Th17 biasing cocktail
  reduction of IL-4 or IL-17 levels: > 50%
[2]
  Intrinsic clearance, % Liver Blood Flow: <34 % Liver Blood Flow

Reference: US12384777B2 (Tay Therapeutics Limited, priority 2019, dated 2025)
